Reference: US12018023B2 (NERVIANO MEDICAL SCIENCES S.R.L., priority 2018, dated 2024)

Tests used:
[1] = molecular target: T1, IDH1^R132H homodimer enzyme (Homo sapiens, UniProt O75874, R132H); experiment: NADPH depletion assay, IDH1 R132H; format: biochemical
T1 construct: purchased not specified
Method: (§1) IDH mutated enzyme activity converting alpha-ketoglutarate to 2-hydroxyglutaric acid is measured using a NADPH depletion assay. In the assay the remaining cofactor is measured at the end of the reaction with the addition of a catalytic excess of diaphorase and resazurin, to generate a fluorescent signal in proportion to the amount of NADPH remaining. IDH1 WT enzyme as well as mutated isoforms IDH1^R132H, IDH1^R132C, and IDH^2R172K enzymes are commercially available proteins (see e.g. Sino Biological, Abcam, Active Motif or Creative BioMart).
(§2) IDH1^R132H homodimer enzyme are diluted to 8 nM, in 10 μL of Assay Buffer (150 mM NaCl, 50 mM Tris-HCl pH 7.6, 10 mM MgCl2, 0.001% Triton X-100, 4 mM β-mercaptoethanol); 0.2 uL of test compound, previously serially diluted 1 to 3, >10 experimental points from 1 mM in DMSO, is added and the mixture is incubated for 15 minutes at room temperature. The reaction is started with the addition of 10 μL of Substrate Mix (12 uM NADPH, 3.4 mM alpha-ketoglutarate in Assay Buffer) and the mixture is incubated for 60 minutes at room temperature. The reaction is terminated with the addition of 5 μl of Detection Buffer (100 μg/mL diaphorase, 30 μM resazurin, in IX Assay Buffer), and is incubated for 15 minute before reading on a ViewLux as platereader at Ex544/Em590.

[2] = molecular target: T2, IDH1^R132C (Homo sapiens, UniProt O75874, R132C); experiment: NADPH depletion assay, IDH1 R132C; format: biochemical
T2 construct: purchased not specified
T2 sequence (O75874 whole entry R132C): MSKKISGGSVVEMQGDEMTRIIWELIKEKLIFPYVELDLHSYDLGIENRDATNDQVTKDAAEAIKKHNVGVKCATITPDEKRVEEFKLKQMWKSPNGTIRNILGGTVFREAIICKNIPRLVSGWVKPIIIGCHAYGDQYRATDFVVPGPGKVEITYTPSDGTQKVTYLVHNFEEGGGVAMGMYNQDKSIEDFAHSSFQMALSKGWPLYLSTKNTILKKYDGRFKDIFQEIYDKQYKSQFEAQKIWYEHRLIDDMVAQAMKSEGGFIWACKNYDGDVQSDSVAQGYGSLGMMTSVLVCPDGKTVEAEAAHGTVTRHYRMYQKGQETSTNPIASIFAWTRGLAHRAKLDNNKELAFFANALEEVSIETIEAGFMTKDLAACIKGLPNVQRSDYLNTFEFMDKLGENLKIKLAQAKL
Method: as §1, §2
Compounds are assayed for their activity against IDH1^R132C following the same assay as above with the following modifications: IDH1^R132C and alpha-ketoglutarate final concentrations in the Assay Buffer is 2 nM and 0.14 mM, respectively.

T1 sequence (O75874 whole entry R132H): as the sequence (O75874 whole entry R132C) above, with C132H counted along it

SMILES | IC50 [1] [nM] | IC50 [2] [nM]
COC(=O)c1ccc([C@H](C)Nc2ncc3ccc(=O)n(Cc4ccccc4)c3n2)cc1 [cpd 1, Methyl 4-{(1S)-1-[(8-benzyl-7-oxo-pyrido[2,3-d]pyrimidin-2-yl)amino]ethyl}benzoate] | 1830 | 622
CCCn1c(=O)ccc2cnc(N[C@@H](C)c3ccc(CN4CCN(C(C)=O)CC4)cc3)nc21 [cpd 103, 2-{[(1S)-1-{4-[(4-acetylpiperazin-1-yl)methyl]phenyl}ethyl]amino}-8-propylpyrido[2,3-d]pyrimidin-7(8H)-one] | 1590 | 634
C[C@H](Nc1ncc2ccc(=O)n(CC(C)(C)C)c2n1)c1ccc(CN2CC(F)(F)C2)cc1 [cpd 147, 2-{[(1S)-1-{4-[(3,3-difluoroazetidin-1-yl)methyl]phenyl}ethyl]amino}-8-(2,2-dimethylpropyl)pyrido[2,3-d]pyrimidin-7(8H)-one] | 473 | 173
COc1ccc([C@H](C)Nc2ncc3ccc(=O)n(CC(C)(C)C)c3n2)cc1 [cpd 33, 8-(2,2-dimethylpropyl)-2-{[(1S)-1-(4-methoxyphenyl)ethyl]amino}pyrido[2,3-d]pyrimidin-7(8H)-one] | 461 | 190
CC(C)(C)Cn1c(=O)ccc2cnc(NC(C)(C)c3ccccc3)nc21 [cpd 41, 8-(2,2-dimethylpropyl)-2-[(2-phenylpropan-2-yl)amino]pyrido[2,3-d]pyrimidin-7(8H)-one] | 2460 | 1410
Cc1cc(=O)n(CC(C)(C)C)c2nc(N[C@@H](C)c3ccc(CN4CCCC(F)(F)C4)cc3)ncc12 [cpd 60, 2-{(S)-1-[4-(3,3-Difluoro-piperidin-1-ylmethyl)-phenyl]-ethylamino}-8-(2,2-dimethyl-propyl)-5-methyl-8H-pyrido [2,3-d]pyrimidin-7-one] | 341 | 139
CCCn1c(=O)ccc2cnc(N[C@@H](C)c3ccc(CN4CCCCCC4)cc3)nc21 [cpd 102, 2-({(1S)-1-[4-(azepan-1-ylmethyl)phenyl]ethyl}amino)-8-propylpyrido[2,3-d]pyrimidin-7(8H)-one] | 4320 | 2800
C[C@H](Nc1ncc2ccc(=O)n(CC(C)(C)CO)c2n1)c1ccc(CN2CCC(F)(F)CC2)cc1 [cpd 55, 2-{(S)-1-[4-(4,4-Difluoro-piperidin-1-ylmethyl)-phenyl]-ethylamino}-8-(3-hydroxy-2,2-dimethyl-propyl)-8H-pyrido[2,3-d]pyrimidin-7-one] | 137 | 65
C[C@H](Nc1ncc2ccc(=O)n(CC(C)(C)C)c2n1)c1ccc(CO)c(F)c1 [cpd 90, 8-(2,2-dimethylpropyl)-2-({(1S)-1-[3-fluoro-4-(hydroxymethyl)phenyl]ethyl}amino)pyrido[2,3-d]pyrimidin-7(8H)-one] | 697 | 391
C[C@H](Nc1ncc2ccc(=O)n(CCF)c2n1)c1ccc(Cl)cc1 [cpd 17, 2-{[(1S)-1-(4-chlorophenyl)ethyl]amino}-8-(2-fluoroethyl)pyrido[2,3-d]pyrimidin-7(8H)-one] | 4910 | 1890
C[C@H](Nc1ncc2ccc(=O)n(CC(F)(F)F)c2n1)c1ccc(Cl)cc1 [cpd 18, 2-{[(1S)-1-(4-chlorophenyl)ethyl]amino}-8-(2,2,2-trifluoroethyl)pyrido[2,3-d]pyrimidin-7(8H)-one] | 4070 | 1550
C[C@H](Nc1ncc2ccc(=O)n(CC(C)(C)C)c2n1)c1ccc(O)cc1 [cpd 145, 8-(2,2-Dimethyl-propyl)-2-[(S)-1-(4-hydroxy-phenyl)-ethylamino]-8H-pyrido[2,3-d]pyrimidin-7-one] | 3560 | 1320
C[C@H](Nc1ncc2ccc(=O)n(CC(C)(C)O)c2n1)c1ccc(CN2CCC(F)(F)CC2)cc1 [cpd 119, 2-{(S)-1-[4-(4,4-Difluoro-piperidin-1-ylmethyl)-phenyl]-ethylamino}-8-(2-hydroxy-2-methyl-propyl)-8H-pyrido [2,3-d]pyrimidin-7-one] | 2230 | 1160

Continued, values first:

IC50 [1] [nM] | IC50 [2] [nM] | SMILES
42 | 32 | CC(C)[C@H](C)n1c(=O)ccc2cnc(N[C@@H](C)c3ccc(N4CCN(C(=O)OCc5ccccc5)CC4)cc3)nc21 [cpd 174, Benzyl-4-{4-[(1S)-1-({8-[(2S)-3-methylbutan-2-yl]-7-oxo-7,8-dihydropyrido[2,3-d]pyrimidin-2-yl}amino)ethyl]phenyl}piperazine-1-carboxylate]
162 | 51 | CC(C)C(=O)N1CCN(Cc2ccc([C@H](C)Nc3ncc4ccc(=O)n(CC(C)(C)C)c4n3)cc2)CC1 [cpd 157, 8-(2,2-dimethylpropyl)-2-{[(1S)-1-(4-{[4-(2-methylpropanoyl)piperazin-1-yl]methyl}phenyl)ethyl]amino}-pyrido [2,3-d]pyrimidin-7(8H)-one]
126 | 40 | C[C@H](Nc1ncc2ccc(=O)n(CC(C)(C)C)c2n1)c1ccc(CN2CCN(C(=O)C3CC3)CC2)cc1 [cpd 158, 2-{[(1S)-1-(4-{[4-(cyclopropylcarbonyl)piperazin-1-yl]methyl}phenyl)ethyl]amino}-8-(2,2-dimethylpropyl) pyrido[2,3-d]pyrimidin-7(8H)-one]
330 | 120 | CC(C)[C@H](C)n1c(=O)ccc2cnc(N[C@@H](C)c3ccc(CN4CCN(C)C(=O)C4)cc3)nc21 [cpd 188, 8-[(2S)-3-methylbutan-2-yl]-2-{[(1S)-1-{4-[(4-methyl-3-oxopiperazin-1-yl)methyl]phenyl}ethyl]amino}-pyrido [2,3-d]pyrimidin-7(8H)-one]
3510 | 1910 | CC(C)[C@H](C)n1c(=O)ccc2cnc(N[C@@H](C)c3ccc(N4CCNCC4)cc3)nc21 [cpd 176, 8-[(2S)-3-methylbutan-2-yl]-2-({(1S)-1-[4-(piperazin-1-yl)phenyl]ethyl}amino)pyrido[2,3-d]pyrimidin-7(8H)-one]
575 | 144 | CC(C)[C@H](C)n1c(=O)ccc2cnc(N[C@@H](C)c3ccc(N4CCOCC4)cc3)nc21 [cpd 173, 8-[(2S)-3-methylbutan-2-yl]-2-({(1S)-1-[4-(morpholin-4-yl)phenyl]ethyl}amino)pyrido[2,3-d]pyrimidin-7(8H)-one]
– | 105 | C=CC(=O)N1CCN(Cc2ccc([C@H](C)Nc3cc4c(ccc(=O)n4CC)cn3)cc2)CC1 [cpd 236, 7-{(S)-1-[4-(4-Acryloyl-piperazin-1-ylmethyl)-phenyl]-ethylamino}-1-ethyl-1H-[1,6]naphthyridin-2-one]
– | 68 | CCC(=O)N1CCN(C(CC)c2ccc([C@H](C)Nc3ncc4ccc(=O)n(C(C)C)c4n3)cc2)CC1 (stereo partly drawn) [cpd 240, 2-{[(1S)-1-{4-[1-(4-propanoylpiperazin-1-yl)propyl]phenyl}ethyl]amino}-8-(propan-2-yl)pyrido[2,3-d]pyrimidin-7(8H)-one]
– | 213 | C=CC(=O)N1CCN(Cc2ccc([C@H](C)Nc3ncc4ccc(=O)n(CC)c4n3)cc2)C[C@H]1C [cpd 208, 2-{[(1S)-1-(4-{[(3R)-4-acryloyl-3-methylpiperazin-1-yl]methyl}phenyl)ethyl]amino}-8-ethylpyrido[2,3-d]pyrimidin-7(8H)-one]
– | 183 | C=CC(=O)N1CCN(Cc2ccc([C@H](C)Nc3ncc4ccc(=O)n(CC)c4n3)cc2)[C@@H](C)C1 [cpd 210, 2-{[(1S)-1-(4-{[(2S)-4-acryloyl-2-methylpiperazin-1-yl]methyl}phenyl)ethyl]amino}-8-ethylpyrido[2,3-d]pyrimidin-7(8H)-one]
– | 1670 | C=CC(=O)N1CC[C@@H](Oc2ccc([C@H](C)Nc3ncc4ccc(=O)n(CC)c4n3)cc2)C1 [cpd 223, 2-{[(1S)-1-(4-{[(3R)-1-acryloylpyrrolidin-3-yl]oxy}phenyl)ethyl]amino}-8-ethylpyrido[2,3-d]pyrimidin-7(8H)-one]
– | 624 | C=CC(=O)N1CCN(Cc2ccc([C@H](C)Nc3ncc4ccc(=O)n(CC)c4n3)cc2)[C@H](C)C1 [cpd 207, 2-{[(1S)-1-(4-{[(2R)-4-acryloyl-2-methylpiperazin-1-yl]methyl}phenyl)ethyl]amino}-8-ethylpyrido[2,3-d]pyrimidin-7(8H)-one]
– | 330 | CCn1c(=O)ccc2cnc(N[C@@H](C)c3ccc(CN4CCN(C(=O)OC(C)(C)C)CC4)cc3)cc21 [cpd 232, 4-{4-[(S)-1-(1-Ethyl-2-oxo-1,2-dihydro-[1,6]naphthyridin-7-ylamino)-ethyl]-benzyl}-piperazine-1-carboxylic acid tert-butyl ester]
– | 525 | C=CC(=O)N1CCN(Cc2ccc([C@H](C)Nc3ncc4ccc(=O)n(CC)c4n3)cc2)C[C@@H]1C [cpd 211, 2-{[(1S)-1-(4-{[(3S)-4-acryloyl-3-methylpiperazin-1-yl]methyl}phenyl)ethyl]amino}-8-ethylpyrido[2,3-d]pyrimidin-7(8H)-one]
– | 3540 | CC(C)[C@H](C)n1c(=O)ccc2cnc(N[C@@H](C)c3ccc(N4CCNCC4)nc3)nc21 [cpd 180, 8-[(2S)-3-methylbutan-2-yl]-2-({(1S)-1-[6-(piperazin-1-yl)pyridin-3-yl]ethyl}amino)pyrido[2,3-d]pyrimidin-7(8H)-one]
